{"source": "patent US8129409B2", "about": "“Piperidine derivatives and cosmetic compositions thereof” (L'Oreal, priority 2004, dated 2012)", "key": {"[1]": {"system": "human striated muscle cells innervated with explants of rat embryonic rachidian ganglia and spinal cord", "test": "nerve/muscle coculture model, muscle fibre contractions", "assay_type": "cell-based", "procedure": "The compound of Example 1 was tested on a model of nerve/muscle coculture, which makes it possible to recreate a motor arc by innervating human striated muscle cells with explants of rat embryonic rachidian ganglia and spinal cord.\nHuman muscle cells, obtained from samples of striated muscle from healthy donors, are inoculated into wells of cross section 1.8 cm^2 (24-well culture dishes). After culturing for ten days, these cells form a monolayer and fuse. At this stage, explants of embryonic spinal cord from a 13 day-old rat, containing the rachidian ganglia, are placed on the culture.\nThe growth of the neurites is visible beyond the spinal cord explant after one day of culture. The first contractions of the muscle fibres are observed after five to six days of coculture, and after three weeks all the muscle fibres in the region of the explants contract.\nThe cocultures are used after 21 days, when the muscle fibres are striated and contain mature differentiated neuromuscular junctions.\nA muscle fibre showing regular contractions (at least 60 contractions per minute) is then selected from three different culture wells and the number of contractions is counted over 30 seconds. The test compound, diluted in DMSO, is then incubated for 60 seconds in these wells, at a concentration of 10^−5 M. At the end of incubation, the number of contractions is again counted over 30 seconds. […]"}, "[2]": {"test": "anti-wrinkle activity in vivo", "settings": "no details given"}}}
{"molecule": "c1ccc(CCCC2CCN(CCCc3ccccc3)CC2)cc1", "note": "[Example 1, 1,4-bis(3-phenylpropyl)piperidine]", "values": [{"measurement": "contractions of the fibre as % of its contractions before addition of the compound", "setting": "[1]; 10^−5 M, diluted in DMSO, 60 seconds incubation (one minute after adding), contractions counted over 30 seconds, triplicate", "value": 55, "unit": "%"}]}
{"molecule": "CN1C(=O)CN=C(c2ccccc2)c2cc(Cl)ccc21", "note": "[diazepam]", "values": [{"measurement": "effect on muscle fibre contractions in the nerve/muscle coculture model", "setting": "[1]; as demonstrated by the Applicant, no concentration given", "value": "inhibited muscle fibre contractions"}, {"measurement": "anti-wrinkle activity in vivo", "setting": "[2]", "value": "demonstrated in vivo"}]}
